From patent US20210069295A1, “GALECTINS CONTROL MTOR IN RESPONSE TO ENDOMEMBRANE DAMAGE AND PROVIDE A MECHANISM AND TARGET FOR THE TREATMENT OF AUTOPHAGY-RELATED DISEASES” (STC. UNM, priority 2017, published 2021)

Legend:
Type in all cases: binding
[1] = test system: LAMTOR1/p18 and Rag GTPases; test: GST-pulldown assay with in vitro translated proteins; settings: 35S-methionine labeled
Description: (D) Immunoprecipitation analysis of interactions between Gal8 and Ragulator components p14, p18 and MP1. HEK293T cells overexpressing FLAG-tagged Gal8 were immunoprecipitated/collected with anti-FLAG (beads). Cell lysates and collected immune complexes were blotted for endogenous p18, p14, and MP1. (E)(i-ii) GST pulldown assay with in vitro translated Myc-tagged Gal8 or Gal9 and GST-tagged p18. GST-tagged p18 immobilized on Gluthatione sepharose beads were incubated with in vitro translated Myc-tagged Gal8 or Gal9 radiolabeled with 35S-methionine. Interactions were assessed by autoradiography. Data (% binding), means±SEM, n=3, † p≥0.05, **p<0.01, ANOVA. (F)(i-iv) GST pulldown assay with in vitro translated Myc-tagged Rag proteins and GST-tagged Gal8. […] Interactions were assessed by autoradiography. […]
GST and GST-tagged proteins were produced in SoluBL21 Competent E. coli (Genlantis, C700200) and purified by binding to Glutathionine Sepharose 4 Fast Flow beads (GE Healthcare, 17-5132-01) while myc-tagged proteins were in vitro translated using the TNT T7 Reticulocyte Lysate System (Promega, 14610) in the presence of ^35S-methionine. […] Radioactive signals were detected by Fujifilm bioimaging analyzer BAS-5000 and quantified with ScienceLab ImageGuage software (Fujifilm).

TAK1 = biological target: T1, TAK1 (Homo sapiens, UniProt O43318); test: Co-IP of FLAG-tagged galectins with GFP-tagged TAK1 in HEK293T cells; settings: HEK293T overexpressing FLAG-tagged galectins and GFP-TAK1
T1 sequence (O43318 1-606): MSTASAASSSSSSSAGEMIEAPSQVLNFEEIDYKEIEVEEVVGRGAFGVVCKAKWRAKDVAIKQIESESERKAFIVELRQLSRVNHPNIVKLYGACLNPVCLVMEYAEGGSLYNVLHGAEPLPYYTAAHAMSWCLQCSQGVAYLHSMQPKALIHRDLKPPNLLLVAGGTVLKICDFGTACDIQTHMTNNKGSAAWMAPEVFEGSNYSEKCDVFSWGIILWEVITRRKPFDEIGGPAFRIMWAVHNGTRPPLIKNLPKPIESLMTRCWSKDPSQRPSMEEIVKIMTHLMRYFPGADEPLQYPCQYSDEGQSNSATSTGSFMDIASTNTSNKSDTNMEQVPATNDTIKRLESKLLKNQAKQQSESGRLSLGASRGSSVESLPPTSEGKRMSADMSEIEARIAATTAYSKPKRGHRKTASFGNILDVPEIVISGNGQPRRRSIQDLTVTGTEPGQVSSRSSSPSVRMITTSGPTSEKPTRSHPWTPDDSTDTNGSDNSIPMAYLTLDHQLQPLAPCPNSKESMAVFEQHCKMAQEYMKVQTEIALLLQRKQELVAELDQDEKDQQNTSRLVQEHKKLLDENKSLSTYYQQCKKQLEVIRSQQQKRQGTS
Description: (A) Analysis of the activation of AMPK in wildtype (WT) and the complementation of Gal9 in Gal9-knockout (Gal9KO) HEK293A cells treated with 100 μM GPN in full medium for 1 h. AMPK activity was monitored by immunoblotting analysis of AMPKα (T172) and acetyl-CoA carboxylase (ACC, S79) phosphorylation (phosphorylated AMPKα (T172) and ACC (S79) relative to total AMPKα and ACC respectively). (B) HEK293T cells transfected with scrambled siRNA (Scr) or Gal9 siRNA (Gal9KD) were treated with 2 mM LLOMe in full medium for 1 h, and the cell lysates were analyzed for phosphorylation of indicated proteins. Data, means±SEM, n=3, *p<0.05, ANOVA. (C) HEK293T cells overexpressing FLAG-Gal9 were treated with 2 mM LLOMe in full medium for 1 h. Cell lysates were analyzed for the indicated proteins. Data, means±SEM, n=3, *p<0.05, ANOVA. (D) Immunoprecipitation analysis of the interactions between galectins and TAK1. HEK293T cells overexpressing FLAG-tagged galectins and GFP-tagged TAK1 were subjected to anti-FLAG immunoprecipitation followed by immunoblotting for GFP-tagged TAK1. (E) Schematic diagram of Gal9 domains and deletion constructs. (F) HEK293T cells overexpressing FLAG-tagged full-length or truncated Gal9 and GFPAMPK were subjected to anti-FLAG immunoprecipitation, followed by immunoblotting for GFP-AMPK. (G) HEK293T cells overexpressing FLAG-tagged full-length or truncated Gal9 and GFP-TAK1 were subjected to anti-FLAG immunoprecipitation, followed by immunoblotting for GFP-TAK1. (H) Analysis of the activation of AMPK in HEK293T cells subjected to knockdowns as indicated treated with 100 μM GPN in full medium for 1 h. AMPK activity was monitored by immunoblotting analysis of AMPKα (T172) and acetyl-CoA carboxylase (ACC, S79) phosphorylation (phosphorylated AMPKα (T172) and ACC (S79) relative to total AMPKα and ACC respectively). Cells transfected with scrambled siRNA were as control (Scr). […]

AMPKα = test: Co-IP of FLAG-tagged galectins with endogenous AMPKα in HEK293T cells; settings: HEK293T overexpressing FLAG-tagged galectins

direct binding to Ragulator (LAMTOR1/p18) and Rag GTPases in GST-pulldown [1] | interaction with TAK1 (TAK1) | Substance | AMPKα in complexes (co-IP) with galectin (AMPKα)
direct interactions | not | Gal8: protein of the galectin family encoded by the gene LGALS8; beta-galactoside-binding lectin | not detected
did not show direct binding | interacted | Gal9: beta-galactoside-binding lectin protein of the galectin family | found in co-IPs
